Earlier results on one molecule are cited in patent US20110275602A1, “PHARMACEUTICAL ASSOCIATION, COMPOSITIONS FOR TOPICAL USE, FORMS OF DOSAGE AND METHOD OF TREATMENT OF ACUTE OR CHRONIC OTITIS IN PET ANIMALS” (priority 2007, published 2011).

The series deals with acute external otitis. The note with it: humans; literature.

On to `O=C(O)c1cn(C2CC2)c2cc(N3CCNCC3)c(F)cc2c1=O` [ciprofloxacin], for which the “efficacy for the treatment of acute external otitis” value is reported as 77%.
